In article PMC5218480 (PLoS ONE, 2017):

Test system: MV-4-11 cells
Test: Gene expression microarray analysis (Affymetrix PrimeView) and GSEA
Type: cell-based, human
Set-up: RFU PODN (11730768_x_at) / Fold change /veh PODN (11730768_x_at) / RFU LINC00158 (11744669_a_at) / Fold change /veh LINC00158 (11744669_a_at) / RFU DUSP10 (11751237_a_at) / Fold change /veh DUSP10 (11751237_a_at) / RFU ID3 (11757404_x_at) / Fold change /veh ID3 (11757404_x_at) / RFU PLEKHG5 (11737974_s_at) / Fold change /veh PLEKHG5 (11737974_s_at) / RFU LRRC4B (11730491_at) / Fold change /veh LRRC4B (11730491_at) / RFU GIMAP4 (11747438_a_at) / Fold change /veh GIMAP4 (11747438_a_at) / RFU KRT8 (11758183_x_at) / Fold change /veh KRT8 (11758183_x_at) / RFU CNN1 (11734310_a_at) / Fold change /veh CNN1 (11734310_a_at) / RFU VPS37D (11726825_at) / Fold change /veh VPS37D (11726825_at) / RFU C10orf10 (11716522_x_at) / Fold change /veh C10orf10 (11716522_x_at) / RFU KIR2DL2 /// KIR2DL4 /// KIR2DL5A /// KIR2DL5B /// KIR2DS1 /// KIR2DS2 /// KIR2DS3 /// KIR2DS4 /// KIR3DL3 /// KIR3DL3 /// KIR3DS1 (11738374_at) / Fold change /veh KIR2DL2 /// KIR2DL4 /// KIR2DL5A /// KIR2DL5B /// KIR2DS1 /// KIR2DS2 /// KIR2DS3 /// KIR2DS4 /// KIR3DL3 /// KIR3DL3 /// KIR3DS1 (11738374_at) / RFU C1QL1 (11718748_at) / Fold change /veh C1QL1 (11718748_at) / RFU TMPRSS4 (11747572_a_at) / Fold change /veh TMPRSS4 (11747572_a_at) / RFU HAMP (11756126_x_at) / Fold change /veh HAMP (11756126_x_at) / RFU RNFT2 (11725882_a_at) / Fold change /veh RNFT2 (11725882_a_at) / RFU NR4A2 (11747474_a_at) / Fold change /veh NR4A2 (11747474_a_at) / RFU ABCC12 (11746883_a_at) / Fold change /veh ABCC12 (11746883_a_at) / RFU TMEM136 (11760407_x_at) / Fold change /veh TMEM136 (11760407_x_at) / RFU CLDN22 /// WWC2 (11732394_at) / Fold change /veh CLDN22 /// WWC2 (11732394_at) / RFU HLA-DPB1 (11760878_x_at) / Fold change /veh HLA-DPB1 (11760878_x_at) / RFU SPINT1 (11716480_a_at) / Fold change /veh SPINT1 (11716480_a_at) / RFU GAP43 (11754022_s_at) / Fold change /veh GAP43 (11754022_s_at) / RFU A4GNT (11735810_at) / Fold change /veh A4GNT (11735810_at) / RFU PRB3 (11715151_x_at) / Fold change /veh PRB3 (11715151_x_at) / RFU TUBB4B (11761932_at) / Fold change /veh TUBB4B (11761932_at) / RFU CAPN14 (11732068_a_at) / Fold change /veh CAPN14 (11732068_a_at) / RFU TMCC2 (11721928_a_at) / Fold change /veh TMCC2 (11721928_a_at) / RFU IRGQ (11745062_a_at) / Fold change /veh IRGQ (11745062_a_at) / RFU FAM174B (11720279_a_at) / Fold change /veh FAM174B (11720279_a_at) / RFU TMPRSS4 (11748680_a_at) / Fold change /veh TMPRSS4 (11748680_a_at) / RFU FAM212B (11763350_a_at) / Fold change /veh FAM212B (11763350_a_at) / RFU PLEKHG5 (11743358_a_at) / Fold change /veh PLEKHG5 (11743358_a_at) / RFU ZSCAN30 (11745921_a_at) / Fold change /veh ZSCAN30 (11745921_a_at) / RFU CMKLR1 (11741424_a_at) / Fold change /veh CMKLR1 (11741424_a_at) / RFU LOC101060620 /// MAPK8IP1 (11723275_at) / Fold change /veh LOC101060620 /// MAPK8IP1 (11723275_at) / RFU SPTSSB (11747773_x_at) / Fold change /veh SPTSSB (11747773_x_at) / RFU PRSS12 (11739890_at) / Fold change /veh PRSS12 (11739890_at) / RFU BIN1 (11741810_x_at) / Fold change /veh BIN1 (11741810_x_at) / RFU WNT11 (11732464_a_at) / Fold change /veh WNT11 (11732464_a_at) / RFU C10orf10 (11716521_a_at) / Fold change /veh C10orf10 (11716521_a_at) / RFU C5orf56 (11738089_at) / Fold change /veh C5orf56 (11738089_at) / RFU CYB561 (11721691_x_at) / Fold change /veh CYB561 (11721691_x_at) / RFU ANKRD19P (11752326_a_at) / Fold change /veh ANKRD19P (11752326_a_at) / RFU OR2T12 /// OR2T33 /// OR2T8 (11738714_s_at) / Fold change /veh OR2T12 /// OR2T33 /// OR2T8 (11738714_s_at) / RFU VCAN (11748164_a_at) / Fold change /veh VCAN (11748164_a_at) / RFU JSRP1 (11732532_at) / Fold change /veh JSRP1 (11732532_at) / RFU KRTAP10-11 (11738290_x_at) / Fold change /veh KRTAP10-11 (11738290_x_at) / RFU MYO3A (11730013_a_at) / Fold change /veh MYO3A (11730013_a_at) / RFU EBF3 (11725865_a_at) / Fold change /veh EBF3 (11725865_a_at) / RFU CAMK2N1 (11719241_x_at) / Fold change /veh CAMK2N1 (11719241_x_at) / RFU C5orf56 (11738088_a_at) / Fold change /veh C5orf56 (11738088_a_at) / RFU OLFML3 (11715873_a_at) / Fold change /veh OLFML3 (11715873_a_at) / RFU LOC100653217 /// NTM (11731650_a_at) / Fold change /veh LOC100653217 /// NTM (11731650_a_at) / RFU MAPK11 (11762145_a_at) / Fold change /veh MAPK11 (11762145_a_at) / RFU FIZ1 (11724087_x_at) / Fold change /veh FIZ1 (11724087_x_at) / RFU OASL (11726364_x_at) / Fold change /veh OASL (11726364_x_at) / RFU SOX15 (11748057_x_at) / Fold change /veh SOX15 (11748057_x_at) / RFU CD79A (11719716_a_at) / Fold change /veh CD79A (11719716_a_at) / RFU HIST1H1D (11736915_at) / Fold change /veh HIST1H1D (11736915_at) / RFU CASKIN2 (11723855_a_at) / Fold change /veh CASKIN2 (11723855_a_at) / RFU LOC730098 (11760151_x_at) / Fold change /veh LOC730098 (11760151_x_at) / RFU OR4N2 (11742367_at) / Fold change /veh OR4N2 (11742367_at) / RFU PRRT2 (11749266_a_at) / Fold change /veh PRRT2 (11749266_a_at) / RFU SNX32 (11753110_a_at) / Fold change /veh SNX32 (11753110_a_at) / RFU CDHR5 (11726645_a_at) / Fold change /veh CDHR5 (11726645_a_at) / RFU RCAN1 (11760418_a_at) / Fold change /veh RCAN1 (11760418_a_at) / RFU FAM167A (11723789_a_at) / Fold change /veh FAM167A (11723789_a_at) / RFU FAM26E (11764081_at) / Fold change /veh FAM26E (11764081_at) / RFU ISYNA1 (11749810_s_at) / Fold change /veh ISYNA1 (11749810_s_at) / RFU ACY1 (11761880_at) / Fold change /veh ACY1 (11761880_at) / RFU 11764098_at / Fold change /veh 11764098_at / RFU SAMD14 (11745864_x_at) / Fold change /veh SAMD14 (11745864_x_at) / RFU NPB (11741838_a_at) / Fold change /veh NPB (11741838_a_at) / RFU TMPRSS6 (11731388_a_at) / Fold change /veh TMPRSS6 (11731388_a_at) / RFU KRTAP10-2 (11738614_at) / Fold change /veh KRTAP10-2 (11738614_at) / RFU ARHGAP8 /// PRR5-ARHGAP8 (11727945_x_at) / Fold change /veh ARHGAP8 /// PRR5-ARHGAP8 (11727945_x_at) / RFU KRTAP5-7 /// NADSYN1 (11734609_at) / Fold change /veh KRTAP5-7 /// NADSYN1 (11734609_at) / RFU RASL12 (11751679_a_at) / Fold change /veh RASL12 (11751679_a_at) / RFU CDKN2B (11736163_a_at) / Fold change /veh CDKN2B (11736163_a_at) / RFU PRF1 (11729649_at) / Fold change /veh PRF1 (11729649_at) / RFU, ZNF638 /// ZNF638-IT1 / Fold change vs veh, ZNF638 /// ZNF638-IT1 / RFU, PANK3 / Fold change vs veh, PANK3 / RFU, SH3YL1 / Fold change vs veh, SH3YL1 / RFU, ZEB2 / Fold change vs veh, ZEB2 / RFU, NRIP1 / Fold change vs veh, NRIP1 / RFU, PTTG1IP / Fold change vs veh, PTTG1IP / RFU, CAPN2 / Fold change vs veh, CAPN2 / RFU, MED14 / Fold change vs veh, MED14 / RFU, SNORA58 / Fold change vs veh, SNORA58 / RFU, C1orf63 / Fold change vs veh, C1orf63 / RFU, LRRFIP1 / Fold change vs veh, LRRFIP1 / RFU, NDUFAF7 / Fold change vs veh, NDUFAF7 / RFU, SLC12A2 / Fold change vs veh, SLC12A2 / RFU, IBTK / Fold change vs veh, IBTK / RFU, ESF1 / Fold change vs veh, ESF1 / Fold change vs veh, TMEM50B / RFU, TAOK1 / Fold change vs veh, TAOK1 / RFU, ACBD3 / Fold change vs veh, ACBD3 / RFU, TMA16 / Fold change vs veh, TMA16 / RFU, RWDD3 / Fold change vs veh, RWDD3 / RFU, BCAT1 / Fold change vs veh, BCAT1 / RFU, EDEM3 / Fold change vs veh, EDEM3 / RFU, TMEM33 / Fold change vs veh, TMEM33 / RFU, WDR75 / Fold change vs veh, WDR75 / RFU, AHCTF1 / Fold change vs veh, AHCTF1 / RFU, TFRC / Fold change vs veh, TFRC / RFU, ZDHHC17 / Fold change vs veh, ZDHHC17 / RFU, NOM1 / Fold change vs veh, NOM1 / RFU, ARL8B / Fold change vs veh, ARL8B / RFU, ZBTB11 / Fold change vs veh, ZBTB11 / RFU, TAMM41 / Fold change vs veh, TAMM41 / RFU, KIAA1704 /// LOC100996395 / Fold change vs veh, KIAA1704 /// LOC100996395 / RFU, ING1 / Fold change vs veh, ING1 / RFU, TRMT61B / Fold change vs veh, TRMT61B / RFU, FUBP3 / Fold change vs veh, FUBP3 / RFU, TP53 / Fold change vs veh, TP53 / RFU, TNKS2 / Fold change vs veh, TNKS2 / RFU, ZFP14 / Fold change vs veh, ZFP14 / RFU, ACTR2 / Fold change vs veh, ACTR2 / RFU, PPP3R1 / Fold change vs veh, PPP3R1 / RFU, PIK3R1 / Fold change vs veh, PIK3R1 / RFU, HNRNPA1 / Fold change vs veh, HNRNPA1 / RFU, RNF170 / Fold change vs veh, RNF170 / RFU, ZNF28 / Fold change vs veh, ZNF28 / RFU, RNGTT / Fold change vs veh, RNGTT / RFU, OGT / Fold change vs veh, OGT / RFU, BRD1 / Fold change vs veh, BRD1 / RFU, MARS / Fold change vs veh, MARS / RFU, ZNF655 / Fold change vs veh, ZNF655 / RFU, FAHD1 / Fold change vs veh, FAHD1 / RFU, BDP1 / Fold change vs veh, BDP1 / RFU, LRRCC1 / Fold change vs veh, LRRCC1 / RFU, ARID1A / Fold change vs veh, ARID1A / RFU, ZNF146 / Fold change vs veh, ZNF146 / RFU, ZNF330 / Fold change vs veh, ZNF330 / RFU, GPN3 / Fold change vs veh, GPN3 / RFU, C9orf123 / Fold change vs veh, C9orf123 / RFU, N4BP2L2 / Fold change vs veh, N4BP2L2 / RFU, ARFIP1 / Fold change vs veh, ARFIP1 / RFU, FAM179B / Fold change vs veh, FAM179B / RFU, BCL10 / Fold change vs veh, BCL10 / RFU, UHRF1BP1L / Fold change vs veh, UHRF1BP1L / RFU, BET1 / Fold change vs veh, BET1 / RFU, CNOT2 / Fold change vs veh, CNOT2 / RFU, ZNF268 / Fold change vs veh, ZNF268 / Fold change vs veh, ZNF507 / RFU, DGCR2 / Fold change vs veh, DGCR2 / RFU, WDSUB1 / Fold change vs veh, WDSUB1 / Fold change vs veh, HSP90B1 /// MIR3652 / RFU, ADSS / Fold change vs veh, ADSS / RFU, GK / Fold change vs veh, GK / RFU, ZNF148 / Fold change vs veh, ZNF148 / RFU, TAF9 / Fold change vs veh, TAF9 / RFU, SLC1A5 / Fold change vs veh, SLC1A5 / RFU, SLMO2 / Fold change vs veh, SLMO2 / RFU, ABCC4 / Fold change vs veh, ABCC4 / RFU, LOC101060439 /// RAP1B / Fold change vs veh, LOC101060439 /// RAP1B / RFU, RFX7 / Fold change vs veh, RFX7 / RFU, GTPBP10 / Fold change vs veh, GTPBP10 / RFU, CNEP1R1 / Fold change vs veh, CNEP1R1 / RFU, BIVM-ERCC5 /// ERCC5 / Fold change vs veh, BIVM-ERCC5 /// ERCC5 / RFU, ILF3 / Fold change vs veh, ILF3 / RFU 11762660_at / Fold change /veh 11762660_at / RFU VCAN (11757783_s_at) / Fold change /veh VCAN (11757783_s_at) / RFU DDX43 (11728927_at) / Fold change /veh DDX43 (11728927_at) / RFU KRT8 (11758188_x_at) / Fold change /veh KRT8 (11758188_x_at) / RFU NKD1 (11759106_at) / Fold change /veh NKD1 (11759106_at) / RFU SRD5A1 (11742802_a_at) / Fold change /veh SRD5A1 (11742802_a_at) / RFU TPSAB1 /// TPSB2 (11721975_s_at) / Fold change /veh TPSAB1 /// TPSB2 (11721975_s_at) / RFU GSTM3 (11746129_a_at) / Fold change /veh GSTM3 (11746129_a_at) / RFU IL23R (11737362_x_at) / Fold change /veh IL23R (11737362_x_at) / RFU TMEM51 (11727254_a_at) / Fold change /veh TMEM51 (11727254_a_at) / RFU PIWIL2 (11732686_x_at) / Fold change /veh PIWIL2 (11732686_x_at) / RFU ORM1 (11744905_x_at) / Fold change /veh ORM1 (11744905_x_at) / RFU CCDC152 (11743942_at) / Fold change /veh CCDC152 (11743942_at) / RFU ECM1 (11717891_a_at) / Fold change /veh ECM1 (11717891_a_at) / RFU IL23R (11748794_a_at) / Fold change /veh IL23R (11748794_a_at) / RFU TNFAIP8L3 (11732012_x_at) / Fold change /veh TNFAIP8L3 (11732012_x_at) / RFU MBOAT4 (11741988_at) / Fold change /veh MBOAT4 (11741988_at) / RFU 11764193_at / Fold change /veh 11764193_at / RFU TMEM53 (11763286_at) / Fold change /veh TMEM53 (11763286_at) / RFU MAGEB2 (11727129_at) / Fold change /veh MAGEB2 (11727129_at) / RFU TMEM200A (11744735_a_at) / Fold change /veh TMEM200A (11744735_a_at) / RFU CCDC152 (11751479_a_at) / Fold change /veh CCDC152 (11751479_a_at) / RFU FAM211A (11726209_a_at) / Fold change /veh FAM211A (11726209_a_at) / RFU RGS16 (11746705_a_at) / Fold change /veh RGS16 (11746705_a_at) / RFU VCAN (11755009_s_at) / Fold change /veh VCAN (11755009_s_at) / RFU RHOB (11743442_s_at) / Fold change /veh RHOB (11743442_s_at) / RFU RGS16 (11720943_a_at) / Fold change /veh RGS16 (11720943_a_at) / RFU RGS16 (11720944_at) / Fold change /veh RGS16 (11720944_at) / RFU, VPS4B / Fold change vs veh, VPS4B / RFU, CREB1 / Fold change vs veh, CREB1 / RFU, DNAJC13 / Fold change vs veh, DNAJC13 / RFU, GNAQ / Fold change vs veh, GNAQ / RFU, CDK5R1 / Fold change vs veh, CDK5R1 / RFU, ZRANB3 / Fold change vs veh, ZRANB3 / RFU, CUL4A / Fold change vs veh, CUL4A / RFU, CCNY / Fold change vs veh, CCNY / RFU, UFL1 / Fold change vs veh, UFL1 / RFU, COG3 / Fold change vs veh, COG3 / RFU, DIAPH2 / Fold change vs veh, DIAPH2 / RFU, SKA2 / Fold change vs veh, SKA2 / RFU, AFF3 / Fold change vs veh, AFF3 / RFU, LMF1 / Fold change vs veh, LMF1 / RFU, IPO11 / Fold change vs veh, IPO11 / RFU, DFFB / Fold change vs veh, DFFB / RFU, FOXP1 / Fold change vs veh, FOXP1 / RFU, CARD8 / Fold change vs veh, CARD8 / RFU, STRN3 / Fold change vs veh, STRN3 / RFU, ADK / Fold change vs veh, ADK / RFU, RASSF2 / Fold change vs veh, RASSF2 / RFU, WIPF1 / Fold change vs veh, WIPF1 / RFU, LARP1B / Fold change vs veh, LARP1B / RFU, RASA1 / Fold change vs veh, RASA1 / RFU, RB1 / Fold change vs veh, RB1 / RFU, PPFIA1 / Fold change vs veh, PPFIA1 / RFU, MAT2A / Fold change vs veh, MAT2A / RFU, CCT5 / Fold change vs veh, CCT5 / RFU, WDR92 / Fold change vs veh, WDR92 / RFU, CUX1 / Fold change vs veh, CUX1 / RFU, TTC7A / Fold change vs veh, TTC7A / RFU, TMEM135 / Fold change vs veh, TMEM135 / RFU, DEPTOR / Fold change vs veh, DEPTOR / RFU, CPM / Fold change vs veh, CPM / RFU, DNAJB6 / Fold change vs veh, DNAJB6 / RFU, CACNA2D3 / Fold change vs veh, CACNA2D3 / RFU, DTX4 / Fold change vs veh, DTX4 / RFU, TFCP2 / Fold change vs veh, TFCP2 / RFU, GMCL1 /// GMCL1P1 / Fold change vs veh, GMCL1 /// GMCL1P1 / RFU, AEBP2 / Fold change vs veh, AEBP2 / RFU, SNHG1 /// SNORD22 /// SNORD25 /// SNORD26 /// SNORD27 /// SNORD28 /// SNORD29 /// SNORD31 / Fold change vs veh, SNHG1 /// SNORD22 /// SNORD25 /// SNORD26 /// SNORD27 /// SNORD28 /// SNORD29 /// SNORD31 / Fold change (Aza/veh), C12orf56 (ProbeSet 11735607_a_at) / Fold change (ACY-1035/veh), C12orf56 (ProbeSet 11735607_a_at) / Fold change (Aza/veh), FGFR1OP (ProbeSet 11751329_s_at) / Fold change (ACY-1035/veh), FGFR1OP (ProbeSet 11751329_s_at) / Fold change (Aza/veh), VPS36 (ProbeSet 11739960_a_at) / Fold change (ACY-1035/veh), VPS36 (ProbeSet 11739960_a_at) / RFU SYPL1 (11715823_x_at) / Fold change /veh SYPL1 (11715823_x_at) / RFU IGFBP7 (11715501_s_at) / Fold change /veh IGFBP7 (11715501_s_at) / RFU REEP3 (11722064_at) / Fold change /veh REEP3 (11722064_at) / RFU IGLL1 (11728026_x_at) / Fold change /veh IGLL1 (11728026_x_at): dose or concentration left out as unconfirmed
Conditions: MV-4-11 cells, 48 hours

Nc1ccc(-c2cccs2)cc1NC(=O)c1ccc2c(c1)cc(C1CC1)n2CCN1CCOCC1 [ACY-1035]
Fold change /veh TMEM136 (11760407_x_at): 1.12
